Assay results reported in ChEMBL document CHEMBL6127020, “Discovery of aminopiperidine based potent & novel topoisomerase inhibitor with broad spectrum anti-bacterial activity” (Bioorg Med Chem Lett, 2024).
≈ marks a conversion by molar mass, not a printed value.

Columns and labels:
Staphylococcus aureus = experiment: Antibacterial activity against Staphylococcus aureus ATCC 29213 assessed as inhibition of bacterial growth; assay type: functional
Escherichia coli = experiment: Antibacterial activity against Escherichia coli ATCC 25922 assessed as inhibition of bacterial growth; assay type: functional
Acinetobacter baumannii = experiment: Antibacterial activity against Acinetobacter baumannii assessed as inhibition of bacterial growth; assay type: functional
[1] = Cmax in C57 mouse at 3 mg/kg,po administration; assay type: ADME, organism-based; conditions: in vivo
[2] = Clearance in C57 mouse at 1 mg/kg,iv administration; assay type: ADME, organism-based; conditions: in vivo
[3] = Aqueous solubility of compound; assay type: physicochemical; conditions: buffer
[4] = AUC (0 to t) in C57 mouse at 1 mg/kg,iv administration; assay type: ADME, organism-based; conditions: in vivo
[5] = MRT in C57 mouse at 1 mg/kg,iv administration; assay type: ADME, organism-based; conditions: in vivo
[6] = Bioavailability in C57 mouse at 1 mg/kg,iv administration; assay type: ADME, organism-based; conditions: in vivo
[7] = Solubility of compound in PBS; assay type: physicochemical; conditions: buffer
[8] = C0 in C57 mouse at 1 mg/kg,iv administration; assay type: ADME, organism-based; conditions: in vivo
Pseudomonas aeruginosa = experiment: Antibacterial activity against Pseudomonas aeruginosa assessed as inhibition of bacterial growth; assay type: functional
[9] = Volume of distribution at steady state in C57 mouse at 1 mg/kg,iv administration; assay type: ADME, organism-based; conditions: in vivo, read-out: Vdss
[10] = Tmax in C57 mouse at 3 mg/kg,po administration; assay type: ADME, organism-based; conditions: in vivo
[11] = Half life in C57 mouse at 1 mg/kg,iv administration; assay type: ADME, organism-based; conditions: in vivo
[12] = AUC (0 to t) in C57 mouse at 3 mg/kg,po administration; assay type: ADME, organism-based; conditions: in vivo
[13] = Plasma protein binding in human; assay type: ADME, cell-free; conditions: read-out: PPB (converted)
Cytochrome P450 3A4 = Cytochrome P450 3A4 (Homo sapiens, UniProt P08684); experiment: Inhibition of CYP3A4 (unknown origin) at 10 uM; assay type: ADME
Cytochrome P450 3A4, sequence (P08684 whole entry): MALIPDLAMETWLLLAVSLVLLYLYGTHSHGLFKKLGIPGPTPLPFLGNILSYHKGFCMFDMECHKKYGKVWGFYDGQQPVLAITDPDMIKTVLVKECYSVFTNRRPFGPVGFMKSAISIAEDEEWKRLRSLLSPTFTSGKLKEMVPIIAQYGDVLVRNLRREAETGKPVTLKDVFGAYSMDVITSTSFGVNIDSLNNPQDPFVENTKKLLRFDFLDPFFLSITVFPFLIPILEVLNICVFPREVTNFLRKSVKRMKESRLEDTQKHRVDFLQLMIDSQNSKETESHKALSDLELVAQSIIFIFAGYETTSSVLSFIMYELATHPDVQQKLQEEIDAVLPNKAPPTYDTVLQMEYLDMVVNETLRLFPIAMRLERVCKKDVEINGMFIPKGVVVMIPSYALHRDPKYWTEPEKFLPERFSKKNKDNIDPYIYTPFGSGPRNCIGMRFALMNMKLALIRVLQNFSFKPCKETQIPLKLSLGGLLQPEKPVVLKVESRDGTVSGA

DNA gyrase = DNA gyrase (Staphylococcus aureus, UniProt P0A0K8+P20831); experiment: Inhibition of Staphylococcus aureus DNA gyrase; assay type: protein-complex assay
Cytochrome P450 2C8 = molecular target: T1, Cytochrome P450 2C8 (Homo sapiens, UniProt P10632); experiment: Inhibition of CYP2C8 (unknown origin) at 10 uM; assay type: ADME
T1 sequence (P10632 whole entry): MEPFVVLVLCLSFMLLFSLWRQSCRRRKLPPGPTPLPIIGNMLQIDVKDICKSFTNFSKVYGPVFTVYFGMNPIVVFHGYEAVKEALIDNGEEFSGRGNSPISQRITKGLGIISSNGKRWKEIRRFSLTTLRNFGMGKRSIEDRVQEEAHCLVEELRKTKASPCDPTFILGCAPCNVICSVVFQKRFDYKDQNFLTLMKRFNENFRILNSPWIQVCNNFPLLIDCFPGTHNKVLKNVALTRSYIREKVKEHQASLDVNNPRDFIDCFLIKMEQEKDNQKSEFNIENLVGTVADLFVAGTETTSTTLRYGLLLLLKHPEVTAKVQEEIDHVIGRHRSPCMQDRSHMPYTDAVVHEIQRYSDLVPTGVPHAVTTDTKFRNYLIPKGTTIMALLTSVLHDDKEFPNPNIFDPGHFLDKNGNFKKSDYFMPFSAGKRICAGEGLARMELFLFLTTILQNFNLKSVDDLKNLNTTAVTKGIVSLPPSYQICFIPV

Cytochrome P450 1A2 = molecular target: T2, Cytochrome P450 1A2 (Homo sapiens, UniProt P05177); experiment: Inhibition of CYP1A2 (unknown origin) at 10 uM; assay type: ADME
T2 sequence (P05177 whole entry): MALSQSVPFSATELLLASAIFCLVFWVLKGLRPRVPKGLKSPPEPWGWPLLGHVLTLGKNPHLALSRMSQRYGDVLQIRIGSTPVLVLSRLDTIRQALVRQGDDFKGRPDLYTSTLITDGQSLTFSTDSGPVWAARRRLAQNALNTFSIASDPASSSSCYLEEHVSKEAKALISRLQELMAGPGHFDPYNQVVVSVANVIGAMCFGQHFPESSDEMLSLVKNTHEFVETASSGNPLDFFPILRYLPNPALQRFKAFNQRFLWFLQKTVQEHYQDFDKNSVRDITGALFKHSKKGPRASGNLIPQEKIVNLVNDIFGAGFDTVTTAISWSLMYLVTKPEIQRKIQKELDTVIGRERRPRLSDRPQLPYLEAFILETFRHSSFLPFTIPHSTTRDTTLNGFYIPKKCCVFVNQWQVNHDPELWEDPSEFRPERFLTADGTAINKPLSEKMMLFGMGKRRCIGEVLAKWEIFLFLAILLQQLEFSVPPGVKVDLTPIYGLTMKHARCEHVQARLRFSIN

Cytochrome P450 2C19 = Cytochrome P450 2C19 (Homo sapiens, UniProt P33261); experiment: Inhibition of CYP2C19 (unknown origin) at 10 uM; assay type: ADME
Cytochrome P450 2C19, sequence (P33261 whole entry): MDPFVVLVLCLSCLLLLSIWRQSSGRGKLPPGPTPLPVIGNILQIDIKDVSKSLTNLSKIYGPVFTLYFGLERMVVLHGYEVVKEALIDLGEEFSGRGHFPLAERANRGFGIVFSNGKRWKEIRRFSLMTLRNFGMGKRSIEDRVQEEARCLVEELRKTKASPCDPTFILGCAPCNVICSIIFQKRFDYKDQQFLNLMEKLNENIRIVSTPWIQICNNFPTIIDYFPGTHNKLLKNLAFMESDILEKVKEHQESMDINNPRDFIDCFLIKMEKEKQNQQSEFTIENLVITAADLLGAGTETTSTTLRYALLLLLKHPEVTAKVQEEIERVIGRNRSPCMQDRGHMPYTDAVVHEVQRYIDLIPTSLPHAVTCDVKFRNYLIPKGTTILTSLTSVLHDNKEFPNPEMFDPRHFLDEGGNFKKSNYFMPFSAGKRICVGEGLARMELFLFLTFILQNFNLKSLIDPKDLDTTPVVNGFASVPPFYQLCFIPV

Cytochrome P450 2D6 = Cytochrome P450 2D6 (Homo sapiens, UniProt P10635); experiment: Inhibition of CYP2D6 (unknown origin) at 10 uM; assay type: ADME
Cytochrome P450 2D6, sequence (P10635 whole entry): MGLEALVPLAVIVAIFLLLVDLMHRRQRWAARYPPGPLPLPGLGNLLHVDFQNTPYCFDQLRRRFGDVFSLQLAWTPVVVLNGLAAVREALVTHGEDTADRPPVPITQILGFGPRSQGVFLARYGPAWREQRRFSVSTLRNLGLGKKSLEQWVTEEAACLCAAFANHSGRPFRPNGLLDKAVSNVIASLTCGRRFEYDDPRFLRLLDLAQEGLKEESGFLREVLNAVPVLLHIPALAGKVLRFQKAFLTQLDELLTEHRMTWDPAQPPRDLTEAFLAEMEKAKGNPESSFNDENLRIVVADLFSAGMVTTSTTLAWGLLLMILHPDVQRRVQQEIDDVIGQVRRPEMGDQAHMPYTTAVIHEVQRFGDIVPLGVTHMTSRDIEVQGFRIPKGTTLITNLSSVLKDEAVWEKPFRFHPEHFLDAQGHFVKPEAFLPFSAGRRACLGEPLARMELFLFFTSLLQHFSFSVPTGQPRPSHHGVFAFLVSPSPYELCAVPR

Topoisomerase IV = Topoisomerase IV (Staphylococcus aureus, UniProt P0C1S7+P0C1U9); experiment: Inhibition of Staphylococcus aureus DNA topoisomerase 4; assay type: protein-complex assay

MIC (Staphylococcus aureus) | MIC (Escherichia coli) | SMILES | other results
> 16 µg/mL | > 16 µg/mL | CCOC(=O)C1COc2ccc(CNC3CCN(CCn4c(=O)ccc5ccc(C#N)cc54)CC3)cc2O1 (stereo unspecified) | 
> 16 µg/mL | > 16 µg/mL | O=S1(=O)C=Cc2ccccc2N1CCN1CCC(NCc2cc3c(cn2)OCCC3)CC1 | 
1 µg/mL (≈ 2.39 µM) | 16 µg/mL (≈ 38.2 µM) | O=c1ccc2ccccc2n1CCN1CCC(NCc2cc3c(cn2)OCCC3)CC1 | 
 |  | N#Cc1ccc2ccc(=O)n(CCN3CCC(NCc4ccc5c(c4)NC(=O)CO5)CC3)c2c1 | inhibition (INH) (Cytochrome P450 3A4): Not Active; IC50 (DNA gyrase): 3.4 nM; inhibition (INH) (Cytochrome P450 2C8): Not Active; inhibition (INH) (Cytochrome P450 1A2): Not Active; inhibition (INH) (Cytochrome P450 2C19): Not Active; inhibition (INH) (Cytochrome P450 2D6): Not Active; IC50 (Topoisomerase IV): 1300 nM
0.125 µg/mL (≈ 0.282 µM) | 0.5 µg/mL (≈ 1.13 µM) | N#Cc1ccc2ccc(=O)n(CCN3CCC(NCc4cc5c(cn4)OCCC5)CC3)c2c1 | 
> 16 µg/mL | > 16 µg/mL | CN1C(=O)C(C)(C)Oc2ccc(CNC3CCN(CCn4c(=O)ccc5ccc(C#N)cc54)CC3)cc21 | 
> 16 µg/mL | > 16 µg/mL | O=S1(=O)c2ccccc2-c2ccccc2N1CCN1CCC(NCc2cc3c(cn2)OCCC3)CC1 | 
> 16 µg/mL | > 16 µg/mL | CCOC(=O)C1COc2cc(CNC3CCN(CCn4c(=O)ccc5ccc(C#N)cc54)CC3)ccc2O1 (stereo unspecified) | 
8 µg/mL (≈ 17 µM) | 16 µg/mL (≈ 33.9 µM) | CN1C(=O)COc2ccc(CNC3CCN(CCn4c(=O)ccc5ccc(C#N)cc54)CC3)cc21 | 
> 16 µg/mL | > 16 µg/mL | N#Cc1ccc2ccc(=O)n(CCN3CCC(NCc4ccc5c(c4)OCC(=O)N5)CC3)c2c1 | 
> 16 µg/mL | > 16 µg/mL | c1ccc2c(c1)-c1ccccc1C2CCN1CCC(NCc2cc3c(cn2)OCCC3)CC1 | 
> 16 µg/mL | > 16 µg/mL | N#Cc1ccc2ccc(=O)n(CCN3CCC(NCc4ccc5c(c4)OC(C(=O)O)CO5)CC3)c2c1 (stereo unspecified) | 

SMILES | MIC (Staphylococcus aureus) | MIC (Escherichia coli) | other results
O=c1ccc2ncc(=O)n3c2n1C[C@H]3CN1CCC(NCc2cc3c(cn2)OCCC3)CC1 [GEPOTIDACIN] | 0.25 µg/mL (≈ 0.557 µM) | 0.5 µg/mL (≈ 1.11 µM) | MIC90 (Acinetobacter baumannii): 64 µg/mL (≈ 143 µM); Cmax [1]: 90 ng/mL; clearance [2]: 60 mL/min/kg; solubility [3]: 580 µg/mL (≈ 1290 µM); AUC(0-t) [4]: 244 ng·h/mL; MRT [5]: 1.4 h; bioavailability [6]: 24%; solubility [7]: 663 µg/mL (≈ 1480 µM); C0 [8]: 724 ng/mL; MIC90 (Pseudomonas aeruginosa): 32 µg/mL (≈ 71.3 µM); Vd [9]: 5 L/kg; Tmax [10]: 2 h; half-life [11]: 1.7 h; AUC(0-t) [12]: 176 ng·h/mL; fraction unbound [13]: 0.67
